According to patent US20260206761A1, “HETEROARYL-TRIAZOLE COMPOUNDS AS PESTICIDES” (Bayer Aktiengesellschaft, priority 2019, published 2026):

How the values were obtained:
Assay type in all cases: in vivo
[1] = test system: adult engorged female ticks (Rhipicephalus microplus); assay: Rhipicephalus (Boophilus) microplus injection test; conditions: 168 h, egg deposition after 7 days, read-out: activity (efficacy: infertile eggs); for pest or weed control at 4 pg: application rate 4 pg/animal; for pest or weed control at 0.02 mg: application rate 20 μg/animal
In short: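 Compound in DMSO (10 mg per 0.5 mL, then diluted with DMSO to test concentration); 1 μL injected into the abdomen of each of five engorged females, then held in a climate chamber. Fertile egg deposition checked at 7 days; efficacy 100% = all eggs infertile, 0% = all fertile.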

[2] = test system: adult unfed cat fleas (Ctenocephalides felis); assay: Ctenocephalides felis oral test; conditions: 48 h, read-out: activity (mortality)
In short: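 About 20 adult unfed fleas fed through parafilm on cattle blood containing compound (DMSO stock diluted in blood), blood held at 37 °C and fleas at room temperature. Mortality (%) scored after 2 days.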

[3] = test system: adult brown dog ticks (Rhipicephalus sanguineus); assay: Rhipicephalus sanguineus in-vitro contact test, adult brown dog ticks; conditions: after 48 hours, read-out: activity (efficacy: ticks dead or moribund); for pest or weed control at 100 g/ha: application rate 1 pg/cm^2 (=100 g/ha); for pest or weed control at 5 µg/cm2, 500 g/ha: application rate 5 μg/cm^2 (=500 g/ha)
In short: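 Efficacy is % of adult ticks dead or moribund 48 h after confinement at room temperature in tubes wall-coated from acetone (5 μg/cm² at 900 ppm). Scoring by heat challenge at 45-50 °C up to 5 min; immotile or uncoordinated ticks failing to climb count as affected.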

[4] = test system: fall armyworm larvae (Spodoptera frugiperda); assay: Spodoptera frugiperda spray test; conditions: 168 h, read-out: activity (mortality)
In short: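 Larvae of fall armyworm placed on dried maize leaf sections previously sprayed with emulsified compound (acetone/DMF solvent, water with 1000 ppm emulsifier). Percent of caterpillars killed recorded on day 7, 0–100% scale.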

[5] = test system: Anopheles funestus strain FUMOZ-R; assay: Anopheles funestus test (ANPHFU surface treatment & contact assay); conditions: 24 hours after contact, read-out: efficacy (mortality); for mortality at 4 mg/m2: surface concentration 4 mg/m^2, exposure 30 minutes; for mortality at 20 mg/m2: surface concentration 20 mg/m^2, exposure 30 minutes
In short: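 Compound dissolved in acetone at 2 mg/ml with 2000 ppm RME, pipetted onto glazed tile; acetone evaporated. Adult FUMOZ-R mosquitoes exposed to dried surface for 30 min. Percent mortality scored 24 h after contact.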

[6] = test system: Culex quinquefasciatus strain P00; assay: Culex quinquefasciatus test (CULXFA surface treatment & contact assay); conditions: 24 hours after contact, read-out: efficacy (mortality); for mortality at 4 mg/m2: surface concentration 4 mg/m^2, exposure 30 minutes; for mortality at 20 mg/m2: surface concentration 20 mg/m^2, exposure 30 minutes
In short: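 Compound in acetone (2 mg/ml) with 2000 ppm rapeseed oil methyl ester, dried onto glazed tile. Adult mosquitoes exposed to the treated surface for 30 min. Percent mortality scored 24 h after contact.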

| SMILES | pest or weed control at 4 pg [1] | pest or weed control at 0.02 mg [1] | mortality at 100 ppm [2] | pest or weed control at 100 g/ha [3] | pest or weed control at 5 µg/cm2, 500 g/ha [3] | mortality at 100 g/ha [4] | mortality at 4 mg/m2 [5] | mortality at 20 mg/m2 [5] | mortality at 4 mg/m2 [6] | mortality at 20 mg/m2 [6] | mortality at 500 g/ha [4] |
| --- | --- | --- | --- | --- | --- | --- | --- | --- | --- | --- | --- |
| CC(C)c1nc([C@H](C)NC(=O)c2cc(OC(F)(F)F)cc(C3CC3)c2)n(-c2ccc(C#N)cn2)n1 [I-23] | 100% | 100% | 100% | 100% | 100% | 100% | 80 to 100% | 80 to 100% | – | – | – |
| C[C@H](NC(=O)c1cc(Cl)cc(S(=O)(=O)C2CC2)c1)c1nc(C2CC2)nn1-c1ncc(Cl)cn1 [I-25] | 100% | 100% | 100% | – | – | 100% | – | – | 80 to 100% | 80 to 100% | – |
| CSc1cc(C#N)cc(C(=O)N[C@@H](C)c2ncnn2-c2ccc(C#N)cn2)c1 [II-3] | 100% | 100% | 100% | – | – | – | – | 80 to 100% | 80 to 100% | 80 to 100% | 100% |
| Cc1nc([C@H](C)NC(=O)c2cc(C(F)(F)F)n(C)n2)n(-c2ccc(C#N)cn2)n1 [II-7] | 100% | 100% | 100% | – | – | 100% | 80 to 100% | – | – | 80 to 100% | 100% |
| Cc1nc([C@H](C)NC(=O)c2cc(Cl)nn2C)n(-c2ccc(C#N)cn2)n1 [II-11] | 100% | 100% | 100% | 80% | 80% | – | 80 to 100% | 80 to 100% | 80 to 100% | – | 100% |
| C[C@H](NC(=O)c1cc(C(F)(F)F)cc(S(C)(=O)=O)c1)c1ncnn1-c1ccc(Cl)cn1 [II-16] | 100% | 100% | 100% | – | – | 100% | 80 to 100% | – | 80 to 100% | – | 100% |
| C[C@H](NC(=O)c1cc(Cl)cc(S(=O)(=O)C(F)F)c1)c1ncnn1-c1ccc(C#N)cn1 [II-17] | 100% | 100% | 100% | – | – | 83% | 80 to 100% | – | 80 to 100% | 80 to 100% | 100% |
| C[C@H](NC(=O)c1cc(Cl)cc([S+]([O-])C(F)F)c1)c1ncnn1-c1ccc(C#N)cn1 (stereo partly drawn) [II-18, 3-chloro-N-{(1S)-1-[1-(5-cyanopyridin-2-yl)-1H-1,2,4-triazol-5-yl]ethyl}-5-[(difluoro-methyl)sulfinyl]benzamide] | 100% | 100% | 100% | – | – | 100% | – | – | 80 to 100% | 80 to 100% | 100% |
| C[C@H](NC(=O)c1cc(OC(F)(F)F)cc(C2CC2)c1)c1ncnn1-c1ccc(Cl)cn1 [II-23] | 100% | 100% | – | 100% | 100% | 100% | – | 80 to 100% | 80 to 100% | 80 to 100% | 100% |
| C[C@H](NC(=O)c1cc(C2CC2)cc(C(F)(F)F)c1)c1ncnn1-c1ccc(C#N)cn1 [II-26] | 100% | 100% | – | 100% | 100% | 100% | – | – | – | – | 100% |
| C[C@H](NC(=O)c1cc(C2CC2)cc(C(F)(F)F)c1)c1ncnn1-c1ccc(Cl)cn1 [II-27] | 100% | 100% | 100% | 100% | 100% | 100% | 80 to 100% | – | 80 to 100% | 80 to 100% | 100% |
| C[C@H](NC(=O)c1cc(C#N)cc(S(C)(=O)=O)c1)c1ncnn1-c1ccc(Cl)cn1 [II-29] | 100% | 100% | 100% | 80% | 100% | 83% | – | – | 80 to 100% | – | 100% |
| C[C@H](NC(=O)c1cc(C(F)(F)F)cc(S(=O)(=O)C2CC2)c1)c1ncnn1-c1ccc(C#N)cn1 [II-32] | 100% | 100% | 100% | 100% | 100% | 100% | – | – | 80 to 100% | 80 to 100% | 100% |
| Cc1nc([C@H](C)NC(=O)c2cc(Cl)cc(S(=O)(=O)C(F)F)c2)n(-c2ccc(C#N)cn2)n1 [II-35] | 100% | 100% | 100% | – | 80% | – | – | – | – | – | – |
| Cc1nc([C@H](C)NC(=O)c2cc(Cl)cc(S(=O)(=O)C(F)F)c2)n(-c2ccc(Cl)cn2)n1 [II-36] | 100% | 100% | 100% | – | 80% | 100% | – | – | – | – | 100% |
| Cc1nc([C@H](C)NC(=O)c2cc(Cl)cc(C3(C#N)CC3)c2)n(-c2ccc(C#N)cn2)n1 [II-38] | 100% | 100% | 100% | 100% | 100% | 100% | – | – | – | – | – |
| C[C@H](NC(=O)c1cc(Cl)cc(S(=O)(=O)C(F)(F)F)c1)c1ncnn1-c1ncc(OC(F)F)cn1 [II-43] | 100% | 100% | 100% | – | – | 100% | – | – | 80 to 100% | – | – |
| Cc1nc([C@H](C)NC(=O)c2cc(C(F)(F)F)cc(C3(C#N)CC3)c2)n(-c2ccc(Cl)cn2)n1 [II-50] | 100% | 100% | 100% | 100% | 100% | 100% | – | – | – | – | – |
